From patent US20240374585A1, “EPITHELIAL SODIUM CHANNEL (ENAC) INHIBITOR CONJUGATES AND METHODS FOR USE THEREOF” (Lung Therapeutics, Inc., priority 2021, published 2024) come the findings set out here.

In this test the target is T1, ENaC (Homo sapiens, UniProt P37088+P51168+P51170).
T1 construct: Primary NHBE cells were isolated from bronchi of normal healthy patients; endogenous in cells; host or cells: primary normal human bronchial epithelial (NHBE) cells, differentiated at air-liquid interface
T1 sequence (P37088 1-669): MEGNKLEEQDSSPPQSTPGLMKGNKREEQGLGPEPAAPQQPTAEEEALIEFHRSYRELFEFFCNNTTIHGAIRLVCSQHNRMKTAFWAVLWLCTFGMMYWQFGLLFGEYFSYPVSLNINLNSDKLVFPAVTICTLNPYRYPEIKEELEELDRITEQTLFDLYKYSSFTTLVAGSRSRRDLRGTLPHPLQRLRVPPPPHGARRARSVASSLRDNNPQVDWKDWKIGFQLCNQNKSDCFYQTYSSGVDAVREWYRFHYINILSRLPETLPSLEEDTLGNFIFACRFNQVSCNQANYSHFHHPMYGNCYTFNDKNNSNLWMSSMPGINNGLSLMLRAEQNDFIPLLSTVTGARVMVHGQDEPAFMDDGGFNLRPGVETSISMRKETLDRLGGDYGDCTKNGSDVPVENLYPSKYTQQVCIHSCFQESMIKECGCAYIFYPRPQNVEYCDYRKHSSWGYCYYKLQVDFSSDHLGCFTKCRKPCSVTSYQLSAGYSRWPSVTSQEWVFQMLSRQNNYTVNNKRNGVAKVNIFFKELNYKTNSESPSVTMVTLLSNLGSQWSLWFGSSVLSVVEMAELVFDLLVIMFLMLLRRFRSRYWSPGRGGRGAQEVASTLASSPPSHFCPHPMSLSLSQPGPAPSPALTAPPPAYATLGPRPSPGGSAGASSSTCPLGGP
T1 sequence (P51168 1-640): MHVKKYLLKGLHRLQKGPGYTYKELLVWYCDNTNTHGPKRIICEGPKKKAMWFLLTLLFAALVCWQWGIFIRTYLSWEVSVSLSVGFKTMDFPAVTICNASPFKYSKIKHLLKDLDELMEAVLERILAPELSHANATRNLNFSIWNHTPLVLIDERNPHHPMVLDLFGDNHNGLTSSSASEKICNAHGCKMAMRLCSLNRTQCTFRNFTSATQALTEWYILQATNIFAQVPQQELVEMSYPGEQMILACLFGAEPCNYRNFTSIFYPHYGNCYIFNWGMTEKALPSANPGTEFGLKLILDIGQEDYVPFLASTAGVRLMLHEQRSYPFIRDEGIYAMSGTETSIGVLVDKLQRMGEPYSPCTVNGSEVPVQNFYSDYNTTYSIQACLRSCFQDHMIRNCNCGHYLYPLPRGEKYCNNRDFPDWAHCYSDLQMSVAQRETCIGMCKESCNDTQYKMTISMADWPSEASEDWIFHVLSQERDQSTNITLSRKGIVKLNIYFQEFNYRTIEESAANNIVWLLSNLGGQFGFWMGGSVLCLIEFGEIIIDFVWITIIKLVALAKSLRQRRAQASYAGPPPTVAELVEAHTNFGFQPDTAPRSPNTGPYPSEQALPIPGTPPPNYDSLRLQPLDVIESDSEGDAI
T1 sequence (P51170 1-649): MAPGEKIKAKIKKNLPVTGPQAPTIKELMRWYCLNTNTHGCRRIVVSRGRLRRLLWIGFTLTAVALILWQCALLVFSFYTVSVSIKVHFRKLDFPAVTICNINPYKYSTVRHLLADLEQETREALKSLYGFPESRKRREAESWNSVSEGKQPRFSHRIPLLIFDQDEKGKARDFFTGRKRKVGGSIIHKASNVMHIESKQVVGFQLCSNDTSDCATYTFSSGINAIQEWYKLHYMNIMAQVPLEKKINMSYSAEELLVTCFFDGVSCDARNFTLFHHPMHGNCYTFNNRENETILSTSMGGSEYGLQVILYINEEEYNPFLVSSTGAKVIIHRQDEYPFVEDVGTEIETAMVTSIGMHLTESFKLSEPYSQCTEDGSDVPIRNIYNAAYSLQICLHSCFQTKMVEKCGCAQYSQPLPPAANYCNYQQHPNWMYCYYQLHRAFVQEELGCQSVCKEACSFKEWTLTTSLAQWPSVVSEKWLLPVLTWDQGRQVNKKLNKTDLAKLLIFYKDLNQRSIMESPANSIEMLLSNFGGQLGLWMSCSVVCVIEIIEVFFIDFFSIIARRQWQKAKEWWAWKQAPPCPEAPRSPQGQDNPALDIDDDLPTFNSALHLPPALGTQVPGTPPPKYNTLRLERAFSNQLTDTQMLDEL
As to the kind of experiment: ENaC inhibition in NHBE cell monolayers, Ussing epithelial voltage clamp (short circuit current). In kind it is cell-based. On the procedure:
The objective of this study was to measure the ability of the illustrative conjugates to modulate ion transport function of ENAC in normal human bronchial epithelial (NHBE) cell monolayers. Sodium transport function of ENAC expressed in NHBE monolayers was evaluated using an Ussing epithelial voltage clamp apparatus. See, Hirsh et al., J. Pharmacol. Exp. Ther. 2008; 325:77-88, hereby incorporated by reference in its entirety.
Primary NHBE cells were isolated from bronchi of normal healthy patients, expanded in Lonza media (BEGM™ BulletKit™), and plated on Snapwell™ filters to form an epithelium. Cells on Snapwell™ inserts were grown for at least 21 days in Vertex Differentiation media and exposed to an air-liquid interface to promote differentiation. At least one day before the assay, mucous overlaying the apical surface was removed from the inserts by incubating the apical surface for about 30 minutes with ≥200 μL of differentiation media followed by aspiration of the mucous film and media.
The NHBE cell monolayers grown on Snapwell™ filter inserts were transferred to Physiologic Instruments Ussing recording chambers (Physiologic Instruments, Inc., San Diego, CA) and superfused with HB-PS. One or more 6-channel or 8-channel Physiologic Instruments VCC MC6 or VCC MC8 epithelial voltage clamps were used in combination to record short circuit current (ISC) from up to 24 inserts simultaneously. Air was used to operate the bubble lifts to rapidly circulate solutions in each Ussing chamber half and to aerate the monolayers.
Inserts were voltage clamped at 0 m V to record the ISC. Bumetanide (20 μM) was added to the basolateral side of all inserts. Test conjugates prepared as DMSO (Sigma-Aldrich) stocks were added cumulatively and sequentially to the apical Ussing chamber halves with at least 3 minutes between each addition.
Time and volume matched additions of DMSO to the basolateral side of the test conjugate treated inserts and both sides of the vehicle treated inserts was made to maintain osmotic balance across the epithelia. Transepithelial resistance was monitored with small voltage steps. The assay was performed at 35±2° C.
ENaC current at each test conjugate concentration was calculated as the peak current change produced by each test conjugate treated insert minus the mean current change produced by the corresponding DMSO additions to time-matched vehicle controls inserts. Cumulative difference data was fit to a Hill equation of the form: […]
Where IEnaC is the ISC peak difference current measured at each test conjugate concentration [Test].

pIC50: −log10 of the molar value. Like-named read-outs stand apart in the source and are kept apart here.

By pIC50 is commonly meant the IC50 on a negative log10 scale, so that one unit is a factor of ten. As to `CC(=O)N[C@@H](Cc1cn(CCCCNC(N)=NC(=O)c2nc(Cl)c(N)nc2N)nn1)C(=O)NCCCCCC(=O)N[C@@H](C)C(=O)N[C@@H](CO)C(=O)N[C@@H](Cc1c[nH]cn1)C(=O)N[C@@H](CC(C)C)C(=O)N[C@@H](CCCNC(=N)N)C(=O)N[C@@H](CCCCN)C(=O)N[C@@H](CC(C)C)C(=O)N[C@@H](CCCNC(=N)N)C(=O)N[C@@H](CCCCN)C(=O)N[C@@H](CCCNC(=N)N)C(=O)N[C@@H](CC(C)C)C(=O)N[C@@H](CC(C)C)C(N)=O` [Conjugate 8], the pIC50 was 7.22.
For the compound `CC(=O)N[C@@H](Cc1cn(CCCCNC(N)=NC(=O)c2nc(Cl)c(N)nc2N)nn1)C(=O)NCCCCCC(=O)N[C@H](C(=O)N[C@@H](CO)C(=O)N[C@@H](CCCCN)C(=O)N[C@@H](CCCNC(=N)N)C(=O)N[C@@H](CCCNC(=N)N)C(N)=O)C(C)C` [Conjugate 9, Ac-(AmilCC2-Pgy)-Ahx-VSKRR-NH2], the pIC50 (NHBE cell monolayers, Ussing chamber, apical addition, 35±2° C., read-out: IC50 for the ENaC inhibition) is 7.00.
